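1) Cells in 96-well plates. 2) Compound, 48 h, 5 concentrations. 3) Linear interpolation between surrounding doses. 4) Unreached endpoint = highest concentration. The concentration for 50% growth inhibition is given as GI50. Definition used: TGI = concentration required for complete inhibition of growth.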
How the values were obtained:
Test in all cases: growth of human tumour cells (NCI), 48 h
M14 melanoma = system: M14 melanoma
TK-10 renal = system: TK-10 renal
HCT-15 colon = system: HCT-15 colon
OVCAR-8 ovarian = system: OVCAR-8 ovarian
A549 NSCLC = system: A549 NSCLC
OVCAR-3 ovarian = system: OVCAR-3 ovarian
COLO 205 colon = system: COLO 205 colon
LOX IMVI melanoma = system: LOX IMVI melanoma
HS 578T breast = system: HS 578T breast
BT-549 breast = system: BT-549 breast

Row | Compound | TGI (M14 melanoma) | TGI (TK-10 renal) | TGI (HCT-15 colon) | TGI (OVCAR-8 ovarian) | TGI (A549 NSCLC) | TGI (OVCAR-3 ovarian) | TGI (COLO 205 colon) | TGI (LOX IMVI melanoma) | GI50 (TK-10 renal) | GI50 (HS 578T breast) | TGI (HS 578T breast) | GI50 (HCT-15 colon) | GI50 (OVCAR-8 ovarian) | GI50 (A549 NSCLC) | GI50 (OVCAR-3 ovarian) | GI50 (COLO 205 colon) | GI50 (LOX IMVI melanoma) | GI50 (BT-549 breast) | TGI (BT-549 breast) | GI50 (M14 melanoma)
1 | CC1(C)CC2CC(CC(C)(C)C2=O)C1=O | > 100 µM | > 100 µM | > 100 µM | > 100 µM | > 100 µM | > 100 µM | > 100 µM | > 100 µM |  |  |  |  |  |  |  |  |  |  |  | 
2 | C[C@]12CCC(=O)CC1CCCC2=O (some centres not stated) | > 100 µM | > 100 µM | > 100 µM | > 100 µM | > 100 µM | > 100 µM | > 100 µM | > 100 µM |  |  |  |  |  |  |  |  |  |  |  | 
3 | COc1ccc(COC2CC(OC)OC(C)C2OC(=O)c2ccccc2)cc1 (configuration not stated) | > 100 µM | > 100 µM | > 59.5 µM | > 100 µM | > 100 µM | > 95 µM | > 95 µM | 67.9 µM |  |  |  |  |  |  |  |  |  |  |  | 
4 | CN(C)c1ccc(C(=NO)c2ccc(N(C)C)cc2)cc1 |  | 98.6 µM | > 100 µM | > 100 µM | > 100 µM | 10.1 µM | 22.4 µM | > 100 µM | 7.47 µM | 7.39 µM | > 100 µM | 1.64 µM | 3.9 µM | 3.34 µM | 2.22 µM | 3.51 µM | 6.29 µM | 7.34 µM | > 100 µM | 
5 | CCCN(CCC)C(=O)C(=O)c1c(N)[nH]n(-c2ccccc2)c1=O | > 100 µM | > 100 µM | > 100 µM | > 100 µM | > 100 µM | > 100 µM | > 100 µM | > 100 µM |  |  |  |  |  |  |  |  |  |  |  | 
6 | CCOC(=O)c1cc2c(n1Cc1cc(OC)c(OC)c(OC)c1)-c1oncc1CCC2 |  | > 100 µM | > 100 µM | > 49.7 µM | 65.4 µM | 0.399 µM | 0.495 µM | > 35.7 µM | 64.9 µM | 0.343 µM | > 100 µM | 0.186 µM | 0.332 µM | 0.234 µM | 0.0901 µM | 0.109 µM | 0.401 µM | 0.647 µM | 22 µM | 
7 | Cc1ccc(-c2nc3nc(-c4ccccc4)nc(N4CCNCC4)c3o2)cc1 | 3.25 µM | 1.71 µM | 0.834 µM | 1.19 µM | 2.5 µM | 0.352 µM | 0.423 µM | 0.323 µM | 0.747 µM |  |  | 0.291 µM | 0.366 µM | 0.788 µM | 0.187 µM | 0.208 µM | 0.177 µM | 1.69 µM | 3.13 µM | 1.77 µM
8 | Cn1cccc1-c1cc(-c2ccc(Br)cc2)[nH]c(=O)c1C#N |  | > 100 µM | > 100 µM | > 100 µM | > 100 µM | > 100 µM | > 100 µM | > 100 µM | > 100 µM | > 100 µM | > 100 µM | > 100 µM | > 100 µM | > 100 µM | 85.8 µM | > 100 µM | > 100 µM | 85.2 µM | > 100 µM | 
9 | CNC(=O)OCc1c2ccncc2c(C)c2c1[nH]c1ccc(OC)cc12 | 1.81 µM | > 100 µM | > 100 µM | > 100 µM | > 100 µM | > 100 µM | 2.11 µM | > 100 µM |  |  |  |  |  |  |  |  |  |  |  | 
10 | COc1cnc2c(c1)C(=O)c1c-2n(CCCNC2=NCCS2)c(=O)c2cc(Cl)ccc12 | 1.81 µM | 3.09 µM | 2.67 µM |  | 2.51 µM | 3.07 µM | 2.41 µM |  | 1.66 µM |  |  | 1.26 µM |  | 1.2 µM | 1.35 µM | 1.06 µM |  | 1.05 µM | 2.56 µM | 0.0829 µM
11 | O=C(O)c1nc(-c2ccc(Cl)c(Cl)c2)nc2ccc(Cl)cc12 |  | > 100 µM | > 100 µM | > 100 µM | > 100 µM | > 100 µM | > 100 µM |  |  |  |  |  |  |  |  |  |  |  |  | 
12 | CCc1cccc(C)c1NC(=O)C1=C(C)NC(C)=C(C(=O)Nc2c(C)cccc2CC)C1c1ccc2c(c1)OCO2 | 33.8 µM | 80.1 µM |  | > 100 µM | 43.6 µM | 39.8 µM | 38.6 µM | 42.5 µM |  |  |  |  |  |  |  |  |  |  |  | 
13 | CCN1C(=O)N(CC)C2C1NN=c1s/c(=C\c3ccccn3)c(=O)n12 (configuration not stated) |  | > 100 µM | > 100 µM | > 100 µM | > 100 µM | 2.2 µM | 11.6 µM | > 100 µM | 40.7 µM | 2.76 µM | > 100 µM | 0.558 µM | 3.98 µM | 2.15 µM | 0.403 µM | 1.16 µM | 5.71 µM | 3.99 µM | > 100 µM | 
14 | COC1=C(C)C(=O)c2c(cc3c(c2O)C(C)(CCC=C(C)C)C(C)O3)C1=O (configuration not stated) | 55.7 µM | > 100 µM | > 57.2 µM | > 100 µM | 39.8 µM | > 100 µM | > 100 µM | > 100 µM |  |  |  |  |  |  |  |  |  |  |  | 
15 | CN(C)C(=O)c1ccc([N+](=O)[O-])cc1 | > 100 µM | > 100 µM | > 100 µM | > 100 µM | > 100 µM | > 100 µM | > 100 µM | > 100 µM |  |  |  |  |  |  |  |  |  |  |  | 
16 | O=[N+]([O-])c1ccc(N=Nc2ccc(O)c3ccccc23)cc1 |  | > 100 µM | > 100 µM | > 100 µM | > 100 µM | 6 µM | 32.1 µM | 13.6 µM | 2.81 µM | 2.42 µM | 29.9 µM | 3.29 µM | 3.1 µM | 12 µM | 1.77 µM | 13.2 µM | 2.5 µM | 5.07 µM | 46.7 µM | 
17 | CCOC(=O)/C(O)=C(/C(=O)OC)c1ccc(Cl)cc1 | > 100 µM | > 100 µM | > 100 µM | > 100 µM | > 100 µM | > 100 µM | > 100 µM | > 100 µM |  |  |  |  |  |  |  |  |  |  |  | 
18 | CC(C)(C)c1[nH]nc2c1C(c1cc3ccccc3[nH]c1=O)Nc1cc(C(=O)OCc3ccccc3)ccc1N2 (configuration not stated) | > 100 µM | 19.6 µM | > 100 µM | > 100 µM | > 100 µM |  | 10.4 µM | > 100 µM | 3.83 µM | 7.45 µM | > 100 µM | 4.65 µM | 5.5 µM | 3.33 µM |  | 3.54 µM | 3.35 µM | 3.35 µM | > 100 µM | 4.28 µM

From PubChem BioAssay (NCI)
